# How the values were obtained:
# [1] = test system: H9 human embryonic stem cells (hESCs); assay: Flow cytometry for P75 (neural crest stem cell marker) in cultured cells; type: cell-based; settings: suspension about 3 days + adherent about 4 days (FIG. 3E)
# Procedure: The obtained colonies were finely chopped and suspension-cultured under conditions of 37° C. and 5% CO2 in an EB medium containing 10 μM of SB431542 (GlaxoSmithKline: GSK) as a TGF-β I receptor inhibitor and 0.5 μM to 1 μM of dorsomorphin homolog 1 (DMH1) (Tocris Bioscience, USA) or dorsomorphin (Tocris Bioscience, […]). EB medium contained DMEM/F12 (Life Technologies), 20%(v/v) Knockout serum replacement (KSR, Invitrogen), lx non-essential amino acids (Invitrogen), 0.1 mM 13-mercaptoethanol (Invitrogen), and lx penicillin/streptomycin (Invitrogen). As a negative control, dimethyl sulfoxide (DMSO) (Sigma-Aldrich) was used instead of the drug. […] To analyze a proportion of cells expressing P75 protein which is a neural crest stem cell (NCSC) marker, or SOX1 which is a neural progenitor cell (NPC) marker, immunostaining was performed using phycoerythrin (PE)-labeled anti-P75 monoclonal antibody (1:50 dilution) (Miltenyi Biotec), and phycoerythrin (PE)-labeled anti-Sox1 monoclonal antibody (1:100 dilution) (BD Biosciences). The immunostained cells were subjected to flow cytometry using a BD FACSCalibur flow cytometer (BD Biosciences, Sparks, Md., USA). The results of flow cytometry are shown in FIGS. 2A and 2B (FIG. 2A: a graph of P75 flow cytometry, FIG. 2B: a graph of SOX1 flow cytometry). Cells suspension-cultured for about 3 days and adherent-cultured for about 4 days were subjected to P75 flow cytometry, as described in Example 1.2, and the results of flow cytometry are shown in FIG. 3E (upper: SB431542 and DMH1, lower: SB431542 and dorsomorphin).
# [2] = test system: H9 human embryonic stem cells (hESCs); assay: Embryoid body count after suspension culture of H9 hESCs; type: cell-based; settings: increasing concentrations of DMH1 in EB medium with 10 μM SB431542; suspension culture about 4 days; p<0.001
# Procedure: Colonies obtained by culturing H9 human embryonic stem cells (hESCs) (WiCell Research Institute, Inc. Madison, Wis., U.S.A.) in a culture medium were dissociated into single cells using accutase (Life Technologies). The cells dissociated into single cells were seeded in a culture plate coated with a protein such as vitronectin (VTN) (vitronectin XF, STEMCELL Technologies), […]-521, Thermo Fisher Scientific Inc., Waltham, Mass., USA), fibronectin (Thermo Fisher Scientific Inc.), or MatrigelTM (StemCell Technologies, Inc.). An embryonic stem cell (ESC) culture medium was added to the seeded cells to perform undifferentiation culture. As the ESC culture medium, Essential 8 (E8) medium (StemCell Technologies Inc.), TeSR2 medium (StemCell Technologies Inc), StemMACS (Miltenyi Biotec, Bergisch Gladbach, Germany), etc. was used. […] The number of round-shaped embryoid bodies were counted, and the number of embryoid bodies per unit area (embryoid body/cm^2) according to DMH1 concentrations is shown in FIG. 1D (***: p<0.001).
Compound,proportion of P75-expressing cells ([1]; 0.5 μM BMP inhibitor in EB medium containing 10 μM SB431542 and dorsomorphin) [%],number of embryoid bodies per unit area [2],proportion of P75-expressing cells ([1]; 0.5 μM to 1 μM DMH1 + 10 μM SB431542) [%],proportion of P75-expressing cells ([1]; 2.5 μM DMH1 + 10 μM SB431542)
"c1cc(-c2cnn3cc(-c4ccc(OCCN5CCCCC5)cc4)cnc23)ccn1 [dorsomorphin, 6-[4-[2-(1-Piperidinyl)pethoxy]phenyl]-3-(4-pyridinyl)-pyrazolo[1,5-a]pyrimidine]",≥ 83.2,–,–,–
"CC(C)Oc1ccc(-c2cnc3c(-c4ccnc5ccccc45)cnn3c2)cc1 [DMH1, 4-[6-[4-(1-Methylethoxy)phenyl]pyrazolo[1,5-a]pyrimidin-3-yl]-quinoline]",–,significantly decreased,≥ 69.8,about 28.9%

# — patent US20220106564A1, “COMPOSITION AND KIT FOR DIFFERENTIATION OF STEM CELLS INTO NEURAL CREST STEM CELLS, INCLUDING INHIBITOR OF TGF-BETA I RECEPTOR AND BMP INHIBITOR, AND METHOD USING SAME” (CHA UNIVERSITY INDUSTRY-ACADEMIC COOPERATION FOUNDATION, priority 2019, published 2022)
